In US11058686B2, “5-(pyrimidin-4-yl)-2-(pyrrolidin-1-yl)nicotinonitrile compounds as IKKE, TBK1 and/or SIK2 kinases inhibitors” (DOMAINEX LIMITED, priority 2017, dated 2021):
Where two headings read alike, the source gives them in different places.

What was measured:
[1] = Pharmacokinetic evaluation in female Balb-C mice after intravenous administration; format: in vivo; settings: for half-life / t½: terminal half life in plasma (estimated); for half-life: read-out: t½ (converted); for Vd: Vd at steady state
Experimental: Pharmacokinetic evaluation was performed in female Balb-C mice. For intravenous administration (IV) compounds were typically dosed at 0.5 mg/Kg in a dose volume of 5 mL/Kg via the tail vein. Compounds were typically dosed in a vehicle of 5% DMSO/95% (Kelptose 20% w/v in phosphate buffered saline (PBS) pH 7.4). Other dosing vehicles known to those skilled in the art can also be used.
Blood samples were taken by cardiac puncture under terminal anaesthesia (isoflurane) at 8 time points between 1 minute and 10 hours following IV administration, typically 1 min, 5 min, 15 min, 30 min, 1 h, 3 h, 6 h and 10 h post dosing. In some instances 2 h, 4 h and 8 h were used for the final 3 time points due to greater convenience. N=3 animals were used per time point. Plasma was immediately obtained by centrifugation, and the resulting samples frozen until analysis. Samples, along with a calibration curve prepared by spiking the compounds into control plasma, were subsequently prepared for quantitative analysis by precipitation of the plasma proteins with acetonitrile. Analysis was by ultra-high performance liquid chromatography (Agilent 1290 system) coupled to time-of-flight mass spectrometry, using electrospray ionisation (Agilent 6550 system). Pharmacokinetic parameters were determined by non-compartmental analysis of mean concentration data using Phoenix WinNonlin v6.4
The volume of distribution (Vd) is the theoretical volume into which a drug appears to be distributed assuming it is present at the same concentration everywhere as it is in plasma.
The Vd at steady state (Vdss) is calculated by multiplying the clearance (Cl) by the mean residence time (MRT). Clearance is measured by dividing the dose by the Area under the concentration time curve. Cl=Dose/AUC0-∞ Vdss=Cl×MRT
The mean residence time is calculated by dividing the area under the second moment curve (AUMC) by the area under the concentration time curve (AUC). The second moment curve can be generated by plotting […] MRT=AUMC/AUC (ii) t1/2 in Mice (Estimated)
The compound half life (t1/2) is the time for the concentration of the drug to halve in the plasma. The terminal half life was typically estimated from the gradient of a log concentration/time plot using the last 3 points. Both the Cl and the Vd contribute to the observed half life. A larger Vd and smaller Cl gives a longer t1/2.

[2] = Human hepatocyte (liver cell) stability; format: in vitro ADME; settings: intrinsic clearance, cryopreserved pooled human hepatocytes, 3 μM compound, 0-60 min; for Human Heps (μL/min/10^6 cells): Table 5, comparative examples; for Human hepatocyte stability (μL/min/10^6 cells): Table 4
Experimental: Commercially available cryopreserved pooled human hepatocytes were purchased and stored in liquid nitrogen prior to use. Williams E media supplemented with 2 mM L-glutamine and 25 mM HEPES and the appropriate test compound (final substrate concentration 3 μM; final DMSO concentration 0.25%) were pre-incubated at 37° C. prior to the addition of a suspension of cryopreserved human hepatocytes (final cell density 0.5×10^6 viable cells/mL in Williams E media supplemented with 2 mM L-glutamine and 25 mM HEPES) to initiate the reaction. The final incubation volume is 500 μL. Two control compounds were included in each test alongside the vehicle control, typically verapamil and umbelliferone.
The reactions were stopped after 0 min, 5 min, 20 min, 40 min and 60 min by transferring 50 μL of the incubate to 100 μL methanol containing an internal standard. The termination plates were subsequently centrifuged at 2500 rpm at 4° C. to precipitate the protein. Following protein precipitation the sample supernatants are combined in cassettes of up to 4 compounds and analysed by LC-MS/MS conditions.
The In peak area ratio (compound peak area/internal standard peak area) was plotted against time and the gradient of the line determined. Elimination rate constant (k)=−(gradient) Half life(t1/2)(min)=0.693/k V(μL/10^6 cells)=Incubation volume (μL)/number of cells in incubation (×10^6) Intrinsic Clearance(Clint)(μL/min/million cells)=V×0.693/t1/2
If the two control compounds are not within historical specified limits then the results are rejected and the experiment repeated.

IKKε = biological target: T1, IKKε (Homo sapiens, UniProt Q14164); test: IKKε enzyme potency, time-resolved fluorescence Lanthascreen kinase assay; format: biochemical; settings: IC50 at apparent Km for ATP (20 μM), 1 h reaction; read-out: Inhibition of IKKε
T1 sequence (Q14164 1-716): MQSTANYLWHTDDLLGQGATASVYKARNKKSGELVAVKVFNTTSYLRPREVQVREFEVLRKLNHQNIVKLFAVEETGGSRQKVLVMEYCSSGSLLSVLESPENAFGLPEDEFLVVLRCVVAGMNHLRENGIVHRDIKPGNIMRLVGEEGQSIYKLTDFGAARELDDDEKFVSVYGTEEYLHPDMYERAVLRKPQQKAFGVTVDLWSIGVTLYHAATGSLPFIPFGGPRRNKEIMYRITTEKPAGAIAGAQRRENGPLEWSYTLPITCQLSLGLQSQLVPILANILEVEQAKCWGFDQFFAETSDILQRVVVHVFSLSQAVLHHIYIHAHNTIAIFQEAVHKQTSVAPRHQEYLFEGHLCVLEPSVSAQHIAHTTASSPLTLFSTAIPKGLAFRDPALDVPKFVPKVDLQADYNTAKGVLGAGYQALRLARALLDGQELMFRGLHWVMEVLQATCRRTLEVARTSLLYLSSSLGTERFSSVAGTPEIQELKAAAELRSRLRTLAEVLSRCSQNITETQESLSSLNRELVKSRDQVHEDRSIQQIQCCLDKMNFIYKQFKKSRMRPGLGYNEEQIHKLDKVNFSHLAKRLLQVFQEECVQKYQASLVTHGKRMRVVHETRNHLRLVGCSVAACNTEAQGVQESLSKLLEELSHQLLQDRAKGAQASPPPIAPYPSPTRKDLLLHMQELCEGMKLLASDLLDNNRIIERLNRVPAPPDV
Experimental: (§1) Compounds of the invention (synthesised as described above), and Comparative Examples 1 to 5 (which may be synthesised as described in WO 2014/128486), were tested for potency against the IKKε and TBK1 enzyme as follows:
(§2) Inhibition studies were performed using a time-resolved fluorescence-based Lanthascreen™ assay. Phosphorylation of a fluorescein-labelled substrate peptide is measured using terbium-labeled phosphospecific antibodies. Terbium is excited at 340 nm and the FRET energy transfer to fluorescein is measured at 495 and 520 nm. The emission ratio between 520 and 495 is a measure of the level of phosphorylation of the substrate by the kinase.
(§3) Kinase inhibition assays (5 μL) were performed at 20° C. in 384-well plate format. Compound IC50 values were determined at the apparent Km for ATP (20 μM) based on a […] assay (Invitrogen) using 8 or 10 point curves in duplicate. The final reaction conditions contained 380 nM fluorescein-IkBα substrate (DRHDSGLDSMKDE) [SEQ ID No 1], 20 μM ATP, 0.9-3 nM IKKε or or 6-8 nM TBK1 kinase respectively, and 1% DMSO in kinase assay buffer consisting of 50 mM HEPES (pH 7.5), 10 mM MgCl2, 1 mM EGTA, 0.05% Brij-35.
(§4) Compound dilutions were prepared from 10 mM DMSO stocks by dilution into DMSO. Compound dilution series were further diluted in kinase assay buffer to give a 5% DMSO stock, the final concentration in the assay being 1% DMSO.
(§5) The kinase phosphorylation assay was initiated by the addition of the kinase and the reaction was allowed to proceed for 1 h or 2.5 h for IKKε and TBK1 kinase respectively. Both conditions were within the linearity of the phosphorylation. The reaction was stopped by the addition of 10 mM EDTA, and phosphorylation was detected after a 1 hour incubation with 1.5 nM terbium-labelled antibody against phosphorylation at Serine 32 on the IkBα peptide, both in TR-FRET dilution buffer (Invitrogen).

TBK1 = biological target: T2, TBK1 (Homo sapiens, UniProt Q9UHD2); test: TBK1 enzyme potency, time-resolved fluorescence Lanthascreen kinase assay; format: biochemical; settings: IC50 at apparent Km for ATP (20 μM), 2.5 h reaction; read-out: Inhibition of TBK1
T2 sequence (Q9UHD2 1-729): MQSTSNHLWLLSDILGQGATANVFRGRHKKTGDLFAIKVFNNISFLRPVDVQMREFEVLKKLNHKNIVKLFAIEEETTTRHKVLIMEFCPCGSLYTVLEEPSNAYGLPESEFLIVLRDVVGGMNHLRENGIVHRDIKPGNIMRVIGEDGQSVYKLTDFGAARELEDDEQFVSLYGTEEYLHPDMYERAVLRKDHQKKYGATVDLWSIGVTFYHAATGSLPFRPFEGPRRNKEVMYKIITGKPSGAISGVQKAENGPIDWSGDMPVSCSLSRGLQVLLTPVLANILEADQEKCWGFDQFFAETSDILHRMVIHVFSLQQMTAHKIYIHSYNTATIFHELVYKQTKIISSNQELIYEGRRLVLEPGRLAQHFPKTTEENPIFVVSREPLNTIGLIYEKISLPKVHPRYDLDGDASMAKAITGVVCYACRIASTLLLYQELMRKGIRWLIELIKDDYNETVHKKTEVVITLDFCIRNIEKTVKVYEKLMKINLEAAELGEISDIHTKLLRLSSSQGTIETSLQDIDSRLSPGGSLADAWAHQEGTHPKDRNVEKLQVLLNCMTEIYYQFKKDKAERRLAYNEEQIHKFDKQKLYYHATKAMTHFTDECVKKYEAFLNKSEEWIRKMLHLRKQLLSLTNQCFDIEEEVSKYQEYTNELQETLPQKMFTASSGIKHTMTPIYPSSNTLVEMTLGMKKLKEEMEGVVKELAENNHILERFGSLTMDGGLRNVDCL
Experimental: as §1, §2, §3, §4, §5

SIK2 = biological target: T3, SIK2 (Homo sapiens, UniProt Q9H0K1); test: SIK2 radiolabelled 33P-ATP Kinase HotSpot assay (Reaction Biology Corporation); format: biochemical; settings: IC50 at apparent Km for ATP (30 μM), 20 μM peptide substrate; read-out: Inhibition of SIK2
T3 construct: purchased Reaction Biology Corporation
Experimental: SIK2 was measured using radiolabelled ^33P-ATP using the Kinase HotSpot℠ technology of Reaction Biology Corporation. The peptide AMARAASAALAARRR [SEQ ID No 2] at a concentration of 20 μM was used as the substrate. IC50 values were determined at the apparent Km for ATP (30 μM)

[3] = mouse, Table 3, comparative examples, IV typically 0.5 mg/Kg
[4] = mouse, plasma, Table 3, comparative examples, IV typically 0.5 mg/Kg, read-out: Vd
[5] = Table 3, comparative examples, IV typically 0.5 mg/Kg
[6] = Table 2, IV typically 0.5 mg/Kg

T3 sequence (Q9H0K1 whole entry): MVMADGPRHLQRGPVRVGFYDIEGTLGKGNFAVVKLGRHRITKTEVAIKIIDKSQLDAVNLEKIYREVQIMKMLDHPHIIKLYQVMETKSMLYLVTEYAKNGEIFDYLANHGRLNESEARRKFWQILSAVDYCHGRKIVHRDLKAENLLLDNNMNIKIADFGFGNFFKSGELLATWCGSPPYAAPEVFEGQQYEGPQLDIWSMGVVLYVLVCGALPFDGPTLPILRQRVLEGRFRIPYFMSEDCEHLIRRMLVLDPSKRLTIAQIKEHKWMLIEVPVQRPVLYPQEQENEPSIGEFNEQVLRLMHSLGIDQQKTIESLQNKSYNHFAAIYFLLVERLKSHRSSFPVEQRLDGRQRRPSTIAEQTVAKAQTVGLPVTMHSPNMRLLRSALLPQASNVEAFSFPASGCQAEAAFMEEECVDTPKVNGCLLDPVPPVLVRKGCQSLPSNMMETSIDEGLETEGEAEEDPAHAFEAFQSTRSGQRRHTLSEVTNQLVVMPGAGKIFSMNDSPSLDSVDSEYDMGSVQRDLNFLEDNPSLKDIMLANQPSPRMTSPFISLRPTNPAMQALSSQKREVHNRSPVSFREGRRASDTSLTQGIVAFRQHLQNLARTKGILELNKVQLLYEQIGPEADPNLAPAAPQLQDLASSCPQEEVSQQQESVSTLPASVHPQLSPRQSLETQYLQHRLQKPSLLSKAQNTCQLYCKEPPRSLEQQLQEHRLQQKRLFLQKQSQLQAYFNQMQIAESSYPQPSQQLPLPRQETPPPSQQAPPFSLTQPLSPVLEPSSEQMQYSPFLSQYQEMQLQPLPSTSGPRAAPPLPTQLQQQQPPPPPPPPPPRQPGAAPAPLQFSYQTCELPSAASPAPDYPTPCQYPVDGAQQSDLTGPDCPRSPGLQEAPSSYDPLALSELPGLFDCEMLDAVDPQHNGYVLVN

SMILES | half-life [1, 3] [min] | Human Heps (μL/min/10^6 cells) [2] [μL/min/10^6 cells] | IC50 (IKKε) [nM] | IC50 (TBK1) [nM] | Vd [1, 6] [L/kg] | t½ [1, 6] [min] | Human hepatocyte stability (μL/min/10^6 cells) [2] [μL/min/10^6 cells] | further results
N#Cc1cc(-c2ccnc(Nc3ccc(CN4CCOCC4)nc3)n2)cnc1N1CC[C@H](F)C1 [Comp. Ex. 1] | 30 | 13 | – | – | – | – | – | Vd [1, 4]: 0.3 L/kg
N#Cc1cc(-c2ccnc(Nc3ccc(CN4CCNC(=O)C4)nc3)n2)cnc1N1CC[C@H](F)C1 [Comp. Ex. 2] | – | ≤6 | – | – | – | – | – | Vd [1, 5]: 0.74 L/kg; t½ [1, 5]: 40.8 min
CN1CCN(c2ccc(Nc3nccc(-c4cnc(N5CC[C@H](F)C5)c(C#N)c4)n3)cn2)CC1 [Comp. Ex. 3] | – | 48 | – | – | – | – | – | –
N#Cc1cc(-c2ccnc(Nc3ccc(NC(=O)CN4CCOCC4)nc3)n2)cnc1N1CC[C@H](F)C1 [Comp. Ex. 4] | 30 | 6 | – | – | – | – | – | Vd [1, 5]: 0.54 L/kg
N#Cc1cc(-c2ccnc(Nc3ccnc(NC(=O)CN4CCOCC4)c3)n2)cnc1N1CC[C@H](F)C1 [Comp. Ex. 5] | 42 | 6 | – | – | – | – | – | Vd [1, 4]: 0.7 L/kg
CCN1CCN(Cc2ccc(Nc3nccc(-c4cnc(N5CC[C@H](F)C5)c(C#N)c4)n3)cn2)CC1 [Ex. No. 1, 5-{2-[6-(4-Ethyl-piperazin-1-ylmethyl)-pyridin-3-ylamino]-pyrimidin-4-yl}-2-((S)-3-fluoro-pyrrolidin-1-yl)-nicotinonitrile] | – | – | 16 | 9 | 3.3 | 102 | 11 | IC50 (SIK2): 7 nM
CCN1CCN(Cc2ccc(Nc3nccc(-c4cnc(N5CC[C@@H](F)C5)c(C#N)c4)n3)cn2)CC1 [Ex. No. 2, 5-{2-[6-(4-Ethyl-piperazin-1-ylmethyl)-pyridin-3-ylamino]-pyrimidin-4-yl}-2-((R)-3-fluoro-pyrrolidin-1-yl)-nicotinonitrile] | – | – | 21 | 20 | 5.6 | 132 | 8 | –
CN1CCN(Cc2ccc(Nc3nccc(-c4cnc(N5CC[C@H](F)C5)c(C#N)c4)n3)cn2)CC1 [Ex. No. 3, 2-((S)-3-Fluoro-pyrrolidin-1-yl)-5-{2-[6-(4-methyl-piperazin-1-ylmethyl)-pyridin-3-ylamino]-pyrimidin-4-yl}-nicotinonitrile] | – | – | 24 | 17 | 4.6 | 144 | 7 | –
